Patent US9717253B2, “Synergistic Bacillus thuringiensis subsp. aizawai and chlorantraniliprole mixtures for diamondback moth, beet armyworm, soybean looper, corn earworm, cabbage looper, and southwestern corn borer control” (priority 2015, dated 2017)
Where two headings read alike, the source gives them in different places.

Columns and labels:
[1] = system: diamondback moth larvae; experiment: Leaf dip test, diamondback moth larvae; format: in vivo; details: Plutella xylostella, foliar, Bta 2.7 ppm, chlorantraniliprole 0.0009 ppm, mixture 2.7 ppm + 0.0009 ppm, read-out: % Efficacy
Experimental: (§1) For these tests, standardized laboratory leaf dip methods were used to inoculate plant material with treatment(s). Dry, treated leaves were placed into Petri dishes (100×25 mm) containing filter paper wetted with 500 μl of distilled H2O (“dH2O”). Each dish was then infested with between 5 and 10 larvae, dependent on species. Efficacy ratings were taken at specified intervals. Synergy ratings were calculated for each test.
In this study, the response of diamondback moth larvae to synergistic amounts of Bacillus thuringiensis subsp. aizawai (“Bta”) and chlorantraniliprole was observed.
(§2) % Cexp=A+B−(AB/100), where % Cexp is the expected efficacy and “in which A and B are the control levels given by the single [insecticides]. If the ratio between the experimentally observed efficacy of the mixture Cobs and the expected efficacy of the mixture is greater than 1, synergistic interactions are present in the mixture.” (Gisi, Synergisitic Interaction of Fungicides in Mixtures, The American Phytopathological Society, 86:11, 1273-1279, 1996). Adopting a conservative approach, Applicant determined synergy to be present at ratios of ≧1.15.
(§3) Bacillus thuringiensis subsp. aizawai was applied at a concentration of 2.7 ppm (2.7 μg/ml). Chlorantraniliprole was applied at a concentration of 0.0009 ppm (0.0009 μg/ml). […]

[2] = system: beet armyworm larvae; experiment: Leaf dip test, beet armyworm larvae; format: in vivo; details: Spodoptera exigua, foliar, Bta 2.7 ppm, chlorantraniliprole 0.0009 ppm, mixture 2.7 ppm + 0.0009 ppm, read-out: % Efficacy
Experimental: as §1, §2
In this study, the response of beet armyworm larvae to amounts of Bacillus thuringiensis subsp. aizawai and chlorantraniliprole was observed.
as §3

[3] = system: cabbage looper larvae; experiment: Leaf dip test, cabbage looper larvae; format: in vivo; details: Trichoplusia ni, foliar, Bta 2.7 ppm, chlorantraniliprole 0.0009 ppm, mixture 2.7 ppm + 0.0009 ppm, read-out: % Efficacy
Experimental: as §1, §2
In this study, the response of cabbage looper larvae to amounts of Bacillus thuringiensis subsp. aizawai and chlorantraniliprole was observed.
as §3

[4] = system: sugarcane borer larvae; experiment: Leaf dip test, sugarcane borer larvae; format: in vivo; details: foliar, Bta 27 ppm, chlorantraniliprole 0.0009 ppm, mixture 27 ppm + 0.0009 ppm, read-out: % Efficacy
Experimental: as §1, §2
In this study, the response of sugarcane borer larvae to amounts of Bacillus thuringiensis subsp. aizawai and chlorantraniliprole was observed.
(§4) Bacillus thuringiensis subsp. aizawai was applied at a concentration of 27 ppm (27 μg/ml). Chlorantraniliprole was applied at a concentration of 0.0009 ppm (0.0009 μg/ml). […]

[5] = system: southwestern corn borer larvae; experiment: Leaf dip test, southwestern corn borer larvae; format: in vivo, Diatraea grandiosella; details: foliar, Bta 2.7 ppm, chlorantraniliprole 0.0009 ppm, mixture 2.7 ppm + 0.0009 ppm, read-out: % Efficacy
Experimental: as §1, §2
In this study, the response of southwestern corn borer larvae to amounts of Bacillus thuringiensis subsp. aizawai and chlorantraniliprole was observed.
as §3

[6] = system: soybean looper larvae; experiment: Leaf dip test, soybean looper larvae; format: in vivo, Chrysodeixis includens; details: foliar, Bta 27 ppm, chlorantraniliprole 0.0009 ppm, mixture 27 ppm + 0.0009 ppm, read-out: % Efficacy
Experimental: as §1, §2
In this study, the response of soybean looper larvae to amounts of Bacillus thuringiensis subsp. aizawai and chlorantraniliprole was observed.
as §4

[7] = system: corn earworm larvae; experiment: Leaf dip test, corn earworm larvae; format: in vivo; details: Helicoverpa zea, foliar, Bta 27 ppm, chlorantraniliprole 0.0009 ppm, mixture 27 ppm + 0.0009 ppm, read-out: % Efficacy
Experimental: as §1, §2
In this study, the response of corn earworm larvae to amounts of Bacillus thuringiensis subsp. aizawai and chlorantraniliprole was observed.
as §4

CNC(=O)c1cc(Cl)cc(C)c1NC(=O)c1cc(Br)nn1-c1ncccc1Cl [Chlorantraniliprole, chlorantraniliprole]
Emax at 0.0009 ppm ([1]; 24 h after treatment): 7% | Emax at 0.0009 ppm ([1]; 48 h after treatment): 7% | Emax at 0.0009 ppm ([2]; 24 h after treatment): 10% | Emax at 0.0009 ppm ([2]; 48 h after treatment): 13% | Emax at 0.0009 ppm ([3]; 24 h after treatment): 7% | Emax at 0.0009 ppm ([3]; 48 h after treatment): 10% | Emax at 0.0009 ppm ([4]; 24 h after treatment): 6% | Emax at 0.0009 ppm ([4]; 48 h after treatment): 12% | Emax at 0.0009 ppm ([5]; 24 h after treatment): 3% | Emax at 0.0009 ppm ([5]; 48 h after treatment): 7% | Emax at 0.0009 ppm ([6]; 24 h after treatment): 10% | Emax at 0.0009 ppm ([6]; 48 h after treatment): 13% | Emax at 0.0009 ppm ([7]; 24 h after treatment): 10% | Emax at 0.0009 ppm ([7]; 48 h after treatment): 7%
